Assay results published in patent publication US10004233B2, “Relating to treatment of water” (BWA WATER ADDITIVES UK LIMITED, priority 2015, dated 2018).

What was measured:
Enterobacter aerogenes = assay: Log10 reduction of viable facultative anaerobic bacteria in high-TDS phosphate buffer suspension (anaerobic acid producing media vials); assay type: cell-based; settings: TDS 30,000 mg l^−1, 8 = complete kill
Method: (§1) Aqueous systems inoculated with anaerobe and facultative anaerobe culture and having a total dissolved solids (TDS) concentration of 30,000 mg l^−1 were prepared and treated with treatment agents comprising: (a) a phosphonium compound and (b) an oxazolidine compound. The phosphonium compound (a) used was tri n-butyl n-tetradecyl phosphonium chloride (TTPC). The oxazolidine compound (b) was 4,4-dimethyloxazolidine (DMO).
(§2) A suspension of Desulfovibrio vulgaris plus Enterobacter aerogenes bacteria containing from 1×10^5 to 1×10^6 cells/mL was prepared in sterile pH 8 phosphate buffer containing sodium chloride to give the desired total dissolved solids (TDS) concentration. Aliquots of this suspension were dosed with the indicated concentrations of the compounds (a) and (b) with the concentrations being measured as ppm active. The mixtures were allowed to stand at room temperature. At the designated contact times, each mixture was sampled to determine the total number of viable cells of both Desulfovibrio vulgaris and Enterobacter aerogenes by serial 10-fold dilution into API RP 38 media vials and anaerobic acid producing media vials, respectively. The vials were incubated at 37° C. for 72 hours. Results were recorded as log10 reduction in the viable count versus the control.
(§3) The efficacy of the treatment agents was evaluated by measuring the Log10 Reduction of the anaerobic bacterium Desulfovibrio vulgaris and the facultative anaerobic bacterium Enterobacter aerogenes after contact times of 1 hour, 4 hours and 24 hours as detailed in Table 1. For TTPC the stated ppm value relates to the amount of TTPC added (active). For the 4,4-dimethyloxazolidine the stated ppm relates to the amount of 4,4-dimethyloxazolidine added (active).

Desulfovibrio vulgaris = assay: Log10 reduction of viable anaerobic bacteria in high-TDS phosphate buffer suspension (API RP 38 media vials); assay type: cell-based; settings: TDS 30,000 mg l^−1, 5 = complete kill
Method: as §1, §2, §3

[1] = DMO 40 ppm active, contact time 1 hour
[2] = DMO 40 ppm active, contact time 4 hours
[3] = DMO 40 ppm active, contact time 24 hours
[4] = DMO 80 ppm active, contact time 1 hour
[5] = DMO 80 ppm active, contact time 4 hours
[6] = DMO 80 ppm active, contact time 24 hours
[7] = TTPC 3.125 ppm active, contact time 1 hour
[8] = TTPC 3.125 ppm active, contact time 4 hours
[9] = TTPC 3.125 ppm active, contact time 24 hours
[10] = TTPC 6.25 ppm active, contact time 1 hour
[11] = TTPC 6.25 ppm active, contact time 4 hours
[12] = TTPC 6.25 ppm active, contact time 24 hours

CC1(C)COCN1 [DMO, 4,4-dimethyloxazolidine]
Log10 Reduction Facultative Anaerobes (Enterobacter aerogenes; [1]): 0 | Log10 Reduction Facultative Anaerobes (Enterobacter aerogenes; [2]): 0 | Log10 Reduction Facultative Anaerobes (Enterobacter aerogenes; [3]): 0 | Log10 Reduction Facultative Anaerobes (Enterobacter aerogenes; [4]): 0 | Log10 Reduction Facultative Anaerobes (Enterobacter aerogenes; [5]): 0 | Log10 Reduction Facultative Anaerobes (Enterobacter aerogenes; [6]): 0 | Log10 Reduction Anaerobes (Desulfovibrio vulgaris; [1]): 1 | Log10 Reduction Anaerobes (Desulfovibrio vulgaris; [2]): 1 | Log10 Reduction Anaerobes (Desulfovibrio vulgaris; [3]): 1 | Log10 Reduction Anaerobes (Desulfovibrio vulgaris; [4]): 1 | Log10 Reduction Anaerobes (Desulfovibrio vulgaris; [5]): 2 | Log10 Reduction Anaerobes (Desulfovibrio vulgaris; [6]): 2

CCCCCCCCCCCCCC[P+](CCCC)(CCCC)CCCC.[Cl-] [TTPC, tri n-butyl n-tetradecyl phosphonium chloride]
Log10 Reduction Facultative Anaerobes (Enterobacter aerogenes; [7]): 1 | Log10 Reduction Facultative Anaerobes (Enterobacter aerogenes; [8]): 2 | Log10 Reduction Facultative Anaerobes (Enterobacter aerogenes; [9]): 4 | Log10 Reduction Facultative Anaerobes (Enterobacter aerogenes; [10]): 3 | Log10 Reduction Facultative Anaerobes (Enterobacter aerogenes; [11]): 4 | Log10 Reduction Facultative Anaerobes (Enterobacter aerogenes; [12]): 5 | Log10 Reduction Anaerobes (Desulfovibrio vulgaris; [7]): 1 | Log10 Reduction Anaerobes (Desulfovibrio vulgaris; [8]): 5 | Log10 Reduction Anaerobes (Desulfovibrio vulgaris; [9]): 5 | Log10 Reduction Anaerobes (Desulfovibrio vulgaris; [10]): 2 | Log10 Reduction Anaerobes (Desulfovibrio vulgaris; [11]): 5 | Log10 Reduction Anaerobes (Desulfovibrio vulgaris; [12]): 5
